Measured values from ChEMBL document CHEMBL1201862, “PubChem BioAssay data set” (2004).
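Exposure lasted 48 hours, with cells grown in 96-well plates and compounds tested at five concentrations. Abbreviation: GI50, concentration required for 50% inhibition of growth.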 The source made the active and inactive calls. No stated cut-off is given here; in the data, active = GI50 up to about 1.1 µM and inactive = higher.

How the values were obtained:
Assay in all cases: inhibition of tumour cell growth, NCI panel, 48 h
ACHN = tested on: ACHN
SK-MEL-2 = tested on: SK-MEL-2
Malme-3M = tested on: Malme-3M
COLO 205 = tested on: COLO 205
UACC-62 = tested on: UACC-62
IGROV-1 = tested on: IGROV-1
UACC-257 = tested on: UACC-257
NCI-H522 = tested on: NCI-H522
HCC 2998 = tested on: HCC 2998
HCT-15 = tested on: HCT-15
PC-3 = tested on: PC-3
NCI-H226 = tested on: NCI-H226
KM12 = tested on: KM12
HOP-92 = tested on: HOP-92
NCI-H23 = tested on: NCI-H23
MDA-MB-435 = tested on: MDA-MB-435
HCT-116 = tested on: HCT-116
SF-295 = tested on: SF-295
CAKI-1 = tested on: CAKI-1
MCF7 = tested on: MCF7
EKVX = tested on: EKVX
786-0 = tested on: 786-0
DU-145 = tested on: DU-145
NCI-H460 = tested on: NCI-H460
K562 = tested on: K562
CCRF-CEM = tested on: CCRF-CEM
A549 = tested on: A549
U-251 = tested on: U-251
NCI/ADR-RES = tested on: NCI/ADR-RES
RPMI-8226 = tested on: RPMI-8226
Hs-578T = tested on: Hs-578T
SK-OV-3 = tested on: SK-OV-3
OVCAR-4 = tested on: OVCAR-4
T47D = tested on: T47D
SK-MEL-5 = tested on: SK-MEL-5
HT-29 = tested on: HT-29
MDA-N = tested on: MDA-N
SF-268 = tested on: SF-268
SK-MEL-28 = tested on: SK-MEL-28
SR = tested on: SR
OVCAR-5 = tested on: OVCAR-5
A498 = tested on: A498
HOP-62 = tested on: HOP-62
OVCAR-3 = tested on: OVCAR-3
HL-60 = tested on: HL-60
LOX IMVI = tested on: LOX IMVI
SF-539 = tested on: SF-539
SNB-19 = tested on: SNB-19
MOLT-4 = tested on: MOLT-4
SW-620 = tested on: SW-620
BT-549 = tested on: BT-549
M14 = tested on: M14
TK-10 = tested on: TK-10
SN12C = tested on: SN12C
RXF 393 = tested on: RXF 393
UO-31 = tested on: UO-31
SNB-75 = tested on: SNB-75
OVCAR-8 = tested on: OVCAR-8

CCOC(=O)/C=C/C1=C(Br)[C@@]2(C)CC[C@@H]3c4ccc(O)cc4CC[C@H]3[C@@H]2C1
GI50 (ACHN): 15.7 µM (inactive) | GI50 (SK-MEL-2): 14.9 µM (inactive) | GI50 (Malme-3M): 12 µM (inactive) | GI50 (COLO 205): 17.8 µM (inactive) | GI50 (UACC-62): 6.85 µM (inactive) | GI50 (IGROV-1): 12.2 µM (inactive) | GI50 (UACC-257): 13.9 µM (inactive) | GI50 (NCI-H522): 4.02 µM (inactive) | GI50 (HCC 2998): 14.8 µM (inactive) | GI50 (HCT-15): 12.1 µM | GI50 (PC-3): 15.2 µM (inactive) | GI50 (NCI-H226): 15.2 µM (inactive) | GI50 (KM12): 16.2 µM (inactive) | GI50 (HOP-92): 11.6 µM (inactive) | GI50 (NCI-H23): 13.7 µM (inactive) | GI50 (MDA-MB-435): 15.2 µM (inactive) | GI50 (HCT-116): 13.7 µM (inactive) | GI50 (SF-295): 15.8 µM (inactive) | GI50 (CAKI-1): 16.4 µM (inactive) | GI50 (MCF7): 13.6 µM (inactive) | GI50 (EKVX): 17.1 µM (inactive) | GI50 (786-0): 12.8 µM (inactive) | GI50 (DU-145): 6.87 µM (inactive) | GI50 (NCI-H460): 14.7 µM (inactive) | GI50 (K562): 9.98 µM (inactive) | GI50 (CCRF-CEM): 7.83 µM (inactive) | GI50 (A549): 16.9 µM (inactive) | GI50 (U-251): 16.6 µM (inactive) | GI50 (NCI/ADR-RES): 14.7 µM (inactive) | GI50 (RPMI-8226): 2.17 µM (inactive) | GI50 (Hs-578T): 15.6 µM (inactive) | GI50 (SK-OV-3): 15.4 µM (inactive) | GI50 (OVCAR-4): 14.5 µM (inactive) | GI50 (T47D): 4.86 µM (inactive) | GI50 (SK-MEL-5): 13.6 µM (inactive) | GI50 (HT-29): 14.6 µM (inactive) | GI50 (MDA-N): 13.8 µM (inactive) | GI50 (SF-268): 19 µM (inactive) | GI50 (SK-MEL-28): 16.4 µM (inactive) | GI50 (SR): 7.03 µM (inactive) | GI50 (OVCAR-5): 15.2 µM (inactive) | GI50 (A498): 18.1 µM (inactive) | GI50 (HOP-62): 14.4 µM (inactive) | GI50 (OVCAR-3): 7.94 µM (inactive) | GI50 (HL-60): 17.9 µM (inactive) | GI50 (LOX IMVI): 7.08 µM (inactive) | GI50 (SF-539): 17 µM (inactive) | GI50 (SNB-19): 16.6 µM (inactive) | GI50 (MOLT-4): 12.5 µM (inactive) | GI50 (SW-620): 13.7 µM (inactive) | GI50 (BT-549): 14.3 µM (inactive) | GI50 (M14): 11.7 µM (inactive) | GI50 (TK-10): 17.9 µM (inactive) | GI50 (SN12C): 13.6 µM (inactive) | GI50 (RXF 393): 15.7 µM (inactive) | GI50 (UO-31): 16.8 µM (inactive)

CC(=O)/N=C1\C=C(NC(C)=O)C(=O)c2ccccc21
GI50 (ACHN): 1.45 µM (inactive) | GI50 (SK-MEL-2): 3.09 µM (inactive) | GI50 (Malme-3M): 1.93 µM (inactive) | GI50 (COLO 205): 1.94 µM (inactive) | GI50 (UACC-62): 2.35 µM (inactive) | GI50 (IGROV-1): 1.71 µM (inactive) | GI50 (UACC-257): 1.81 µM (inactive) | GI50 (NCI-H522): 1.33 µM (inactive) | GI50 (HCC 2998): 17.7 µM (inactive) | GI50 (HCT-15): 1.89 µM | GI50 (PC-3): 2.9 µM (inactive) | GI50 (NCI-H226): 7.96 µM (inactive) | GI50 (KM12): 5.41 µM (inactive) | GI50 (HOP-92): 1.45 µM (inactive) | GI50 (NCI-H23): 0.451 µM (active) | GI50 (MDA-MB-435): 1.82 µM (inactive) | GI50 (HCT-116): 1.49 µM (inactive) | GI50 (SF-295): 3.68 µM (inactive) | GI50 (CAKI-1): 1.95 µM (inactive) | GI50 (MCF7): 1.76 µM (inactive) | GI50 (EKVX): 5.19 µM (inactive) | GI50 (786-0): 1.81 µM (inactive) | GI50 (NCI-H460): 5.08 µM (inactive) | GI50 (K562): 2.04 µM (inactive) | GI50 (CCRF-CEM): 2.84 µM (inactive) | GI50 (A549): 4.62 µM (inactive) | GI50 (U-251): 2.99 µM (inactive) | GI50 (NCI/ADR-RES): 2.51 µM (inactive) | GI50 (RPMI-8226): 1.39 µM (inactive) | GI50 (SNB-75): 2.54 µM (inactive) | GI50 (Hs-578T): 6.28 µM (inactive) | GI50 (SK-OV-3): 6.79 µM (inactive) | GI50 (OVCAR-4): 1.66 µM (inactive) | GI50 (T47D): 1.48 µM (inactive) | GI50 (SK-MEL-5): 1.64 µM (inactive) | GI50 (HT-29): 2.58 µM (inactive) | GI50 (MDA-N): 1.9 µM (inactive) | GI50 (SF-268): 3.18 µM (inactive) | GI50 (SK-MEL-28): 3 µM (inactive) | GI50 (SR): 1.52 µM (inactive) | GI50 (OVCAR-5): 2.13 µM (inactive) | GI50 (A498): 15.2 µM (inactive) | GI50 (HOP-62): 18.5 µM (inactive) | GI50 (OVCAR-3): 2.01 µM (inactive) | GI50 (HL-60): 1.85 µM (inactive) | GI50 (LOX IMVI): 1.68 µM (inactive) | GI50 (SF-539): 2.37 µM (inactive) | GI50 (SNB-19): 3.03 µM (inactive) | GI50 (MOLT-4): 1.98 µM (inactive) | GI50 (SW-620): 1.93 µM (inactive) | GI50 (OVCAR-8): 2.21 µM (inactive) | GI50 (BT-549): 2.17 µM (inactive) | GI50 (M14): 1.73 µM (inactive) | GI50 (TK-10): 5.64 µM (inactive) | GI50 (SN12C): 1.78 µM (inactive) | GI50 (RXF 393): 2.21 µM (inactive) | GI50 (UO-31): 2.04 µM (inactive)

Cc1ccc(S(N)(=O)=O)cc1 [P-TOLUENESULFONAMIDE]
GI50 (ACHN): > 1000 µM (inactive) | GI50 (SK-MEL-2): > 1000 µM (inactive) | GI50 (Malme-3M): > 1000 µM (inactive) | GI50 (COLO 205): > 1000 µM (inactive) | GI50 (UACC-62): > 1000 µM (inactive) | GI50 (IGROV-1): > 1000 µM (inactive) | GI50 (UACC-257): > 1000 µM (inactive) | GI50 (NCI-H522): > 1000 µM (inactive) | GI50 (HCC 2998): > 1000 µM (inactive) | GI50 (HCT-15): > 1000 µM | GI50 (PC-3): > 1000 µM (inactive) | GI50 (NCI-H226): > 1000 µM (inactive) | GI50 (KM12): > 1000 µM (inactive) | GI50 (HOP-92): 558 µM (inactive) | GI50 (NCI-H23): > 1000 µM (inactive) | GI50 (MDA-MB-435): > 1000 µM (inactive) | GI50 (HCT-116): > 1000 µM (inactive) | GI50 (SF-295): > 1000 µM (inactive) | GI50 (MCF7): > 1000 µM (inactive) | GI50 (EKVX): > 1000 µM (inactive) | GI50 (786-0): > 1000 µM (inactive) | GI50 (DU-145): > 1000 µM (inactive) | GI50 (NCI-H460): > 1000 µM (inactive) | GI50 (K562): > 1000 µM (inactive) | GI50 (CCRF-CEM): > 1000 µM (inactive) | GI50 (A549): > 1000 µM (inactive) | GI50 (U-251): > 1000 µM (inactive) | GI50 (NCI/ADR-RES): > 1000 µM (inactive) | GI50 (RPMI-8226): > 1000 µM (inactive) | GI50 (Hs-578T): > 1000 µM (inactive) | GI50 (SK-OV-3): > 1000 µM (inactive) | GI50 (T47D): > 1000 µM (inactive) | GI50 (SK-MEL-5): > 1000 µM (inactive) | GI50 (HT-29): > 1000 µM (inactive) | GI50 (MDA-N): > 1000 µM (inactive) | GI50 (SF-268): > 1000 µM (inactive) | GI50 (SR): > 1000 µM (inactive) | GI50 (OVCAR-5): > 1000 µM (inactive) | GI50 (A498): > 1000 µM (inactive) | GI50 (HOP-62): > 1000 µM (inactive) | GI50 (OVCAR-3): > 1000 µM (inactive) | GI50 (HL-60): > 1000 µM (inactive) | GI50 (LOX IMVI): > 1000 µM (inactive) | GI50 (SF-539): > 1000 µM (inactive) | GI50 (SNB-19): > 1000 µM (inactive) | GI50 (MOLT-4): > 1000 µM (inactive) | GI50 (SW-620): > 1000 µM (inactive) | GI50 (OVCAR-8): > 1000 µM (inactive) | GI50 (BT-549): 977 µM (inactive) | GI50 (M14): > 1000 µM (inactive) | GI50 (TK-10): > 1000 µM (inactive) | GI50 (SN12C): > 1000 µM (inactive) | GI50 (RXF 393): 502 µM (inactive) | GI50 (UO-31): > 1000 µM (inactive)
